Laboratory results published in US20250099427A1, “Drug and Method of Treating or Preventing Renal Disease Using Drug” (Showa University, priority 2018, published 2025).

What was measured:
[1] = tested on: Acute Renal Disease (Cisplatin Nephropathy) Animal Model; assay: Test using acute renal disease (cisplatin nephropathy) animal model, BUN and sCr; type: in vivo, mouse; settings: mean±SE
Method: A male ddY strain mouse (30 to 40 g) was used as an experimental animal. Under anesthesia with isoflurane, cisplatin (20 mg/kg) was injected into the femoral vein at a constant rate over 15 minutes to induce nephropathy. 3 days later, blood was collected from the descending vena cava, and after separating serum, blood urea nitrogen (BUN) and serum creatinine (sCr) were measured to evaluate renal function. Further, the kidney was isolated after perfusion, RNA was extracted, reverse transcription was conducted, real-time RT-PCR was conducted using the produced cDNA as a template, and the effect on TNF-α mRNA expression in renal tissues was also studied. A group to which physiological saline was administered instead of cisplatin was designated as the sham group.
In order to study the timing of administration, a drug (10 mg/kg) was injected into the femoral vein at a constant rate simultaneously with cisplatin, or 1 or 2 days later. In order to study dose relationship, a drug (0.1 mg/kg, 1 mg/kg, or 10 mg/kg) was injected to the femoral vein at a constant rate.
Further, in order to study the effect on TNF-α mRNA expression and histopathological study, a drug (10 mg/kg) was similarly administered 1 day after administration of cisplatin.
The collected blood was centrifuged at 3000 rpm for 15 minutes, serum was separated, and BUN and sCr were measured. In the measurement, BUN was measured using Urea B-test Wako (manufactured by Wako Pure Chemical Industries, Ltd.) and a QuantiChrom Urea Assay Kit (manufactured by Funakoshi Co., Ltd.), and sCr was measured using Lab Assay Creatinine (manufactured by Wako Pure Chemical Industries, Ltd.).
In Tables 13 to 15, the experimental results are expressed in mean±standard error. The RT-PCR results were corrected with the amount of β-Actin as an endogenous control gene. With reference to statistically significant difference, an unpaired test between two groups (Student's t-test) was conducted for comparison between two groups, and one-way analysis of variance was conducted and then a Dunnett test was conducted for comparison among multiple groups. Further, in the histopathological study, a Mann-Whitney U test was conducted, and in all cases, a significance level of 5% or less (P<0.05) was regarded as significant difference.

[2] = tested on: Acute Renal Failure Animal Model; assay: Test using acute renal failure animal model (renal ischemia and reperfusion), renal function parameters; type: in vivo, mouse; settings: for Cer: creatinine clearance; for FENa: fractional excretion of sodium; for KW: kidney weight
Source text: A male ddY strain mouse (30 g) was used as an experimental animal. Under anesthesia with isoflurane, the right flank was incised about 2 cm to expose the kidney. After ligating the renal arteries and veins and the ureter, the right kidney was isolated.
A recovery period of 2 weeks was given, and then an acute renal failure mouse model was produced. Under anesthesia with isoflurane, the left abdomen was incised about 3 cm to expose the left kidney, and the fat around the renal arteries and veins was removed. The blood flow in the left renal arteries and veins was blocked using an atraumatic clip, and the kidney was left in ischemia for 45 minutes. The blood flow was then reperfused by removing the atraumatic clip, the kidney was returned to the abdominal cavity, and the flank was sutured. Mice similarly subjected to the steps other than the ischemia and reperfusion steps using the atraumatic clip were designated as a sham group (eight mice).
After 15 minutes of the initiation of ischemia, the vehicle, SMTP-7, SMTP-27, SMTP-44D, and edaravone were continuously administered to the femoral vein for 30 minutes.
24 hours after the ischemia and reperfusion processes, urine was collected for 24 hours using a metabolic cage, and the urinary output (UF; μL/min/kg) was measured. During collecting urine, only water was freely given. After urine collection, the body weight of each mouse was measured, and blood was collected from the abdominal aorta under anesthesia with isoflurane. After blood collection, the left kidney was isolated and the fat was removed in physiological saline. The kidney weight (KW; mg/g) was measured, and then the kidney was fixed in a 10% neutral buffered formalin solution for Hematoxylin Eosin (HE) staining.
The collected blood was centrifuged at 800×g for 15 minutes at 25° C. to collect serum. Further, the urine collected using a metabolic cage was also used to evaluate renal function. In order to evaluate parameters in the serum, blood urea nitrogen (BUN; mg/dL) was measured using a QuantiChrom Urea Assay Kit (Funakoshi Co., Ltd.). Serum creatinine concentration (Scr; mg/dL) and urinary creatinine concentration (Ucr; mg/dL) were measured using LabAssay (trademark) Creatinine (manufactured by Wako Pure Chemical Industries, Ltd.), and creatinine clearance (Ccr; mL/min/kg) was calculated. The concentrations of sodium in the serum and urine were measured using Fuji Dry Chem 7000 (manufactured by FUJIFILM Corporation), and fractional excretion of sodium (FENa; %) was calculated. Urinary albumin concentration (Ualb; mg/hr/kg) was measured using Albwel M (manufactured by Cosmo Bio Co., Ltd.).
In Table 11, the experimental results are expressed in mean±standard error in eight mice in each group. For comparison among multiple groups, firstly, one-way analysis of variance (ANOVA) was conducted, and then a Bonferroni test was conducted, if significant difference was recognized. Significant difference was recognized with a significance level of less than 5% (P<0.05).

[3] = Administration one day later (1 day): 10 mg/kg femoral vein after cisplatin 20 mg/kg, timing study Table 13
[4] = Administration two days later (2 day): 10 mg/kg femoral vein after cisplatin 20 mg/kg
[5] = Coadministration: 10 mg/kg femoral vein simultaneously with cisplatin 20 mg/kg, blood 3 days after cisplatin
[6] = TNF-α study Table 15: 10 mg/kg 1 day after cisplatin
[7] = dose relationship study Table 14: 0.1 mg/kg femoral vein 1 day after cisplatin, 0.1 mg/kg
[8] = dose relationship study Table 14: 1 mg/kg femoral vein 1 day after cisplatin, 1 mg/kg
[9] = dose relationship study Table 14: 1 mg/kg femoral vein 1 day after cisplatin, listed as SMPT-7, 1 mg/kg
[10] = dose relationship study Table 14: 10 mg/kg femoral vein 1 day after cisplatin, 10 mg/kg
[11] = dose relationship study Table 14: 10 mg/kg femoral vein 1 day after cisplatin, listed as SMPT-7, 10 mg/kg
[12] = 0.01 mg/kg continuous femoral vein 30 min from 15 min after start of 45 min ischemia, mean±SE, 8 mice
[13] = 0.1 mg/kg continuous femoral vein 30 min from 15 min after start of 45 min ischemia, mean±SE, 8 mice
[14] = 0.1 mg/kg, acute renal failure model
[15] = 1 mg/kg continuous femoral vein 30 min from 15 min after start of 45 min ischemia, mean±SE, 8 mice
[16] = 1 mg/kg, acute renal failure model
[17] = 10 mg/kg continuous femoral vein 30 min from 15 min after start of 45 min ischemia, mean±SE, 8 mice
[18] = 0.01 mg/kg continuous femoral vein 30 min from 15 min after start of 45 min ischemia, mean±SE, 8 mice, 0.01 mg/kg
[19] = 0.1 mg/kg continuous femoral vein 30 min from 15 min after start of 45 min ischemia, mean±SE, 8 mice, 0.1 mg/kg
[20] = 1 mg/kg continuous femoral vein 30 min from 15 min after start of 45 min ischemia, mean±SE, 8 mice, 1 mg/kg
[21] = 10 mg/kg continuous femoral vein 30 min from 15 min after start of 45 min ischemia, mean±SE, 8 mice, 10 mg/kg

**Q.** Which BUN [1, 3] does the source give for CC(C)=CCC/C(C)=C/CC[C@@]1(C)Oc2c(c(O)cc3c2CN(CCC[C@@H](C(=O)O)N2Cc4c(cc(O)c5c4O[C@](C)(CC/C=C(\C)CCC=C(C)C)[C@@H](O)C5)C2=O)C3=O)C[C@@H]1O [SMTP-7] here?
**A.** Its BUN is 44.5 ± 2.19 mg/dL.

**Q.** And the sCr [1, 3]?
**A.** The sCr was 0.80 ± 0.07 mg/dL.

**Q.** What about the BUN [1, 4] of the same compound?
**A.** The BUN was 74.2 ± 17.8 mg/dL.

**Q.** And the sCr [1, 4]?
**A.** Its sCr is 0.78 ± 0.18 mg/dL.

**Q.** And the BUN [1, 5]?
**A.** Its BUN is 66.3 ± 9.23 mg/dL.

**Q.** What about the sCr [1, 5] of the same compound?
**A.** The sCr was 0.81 ± 0.09 mg/dL.

**Q.** What about the BUN [1, 6] of the same compound?
**A.** The BUN was 55.9 ± 5.20 mg/dL.

**Q.** And the sCr [1, 6]?
**A.** The sCr was 0.41 ± 0.07 mg/dL.

**Q.** What about the BUN [1, 7] of the same compound?
**A.** Its BUN is 57.0 ± 5.47 mg/dL.

**Q.** What about the sCr [1, 7] of the same compound?
**A.** The sCr was 0.78 ± 0.08 mg/dL.

**Q.** What about the BUN [1, 8] of the same compound?
**A.** Its BUN is 45.0 ± 6.28 mg/dL.

**Q.** And the sCr [1, 8]?
**A.** The sCr was 0.65 ± 0.09 mg/dL.

**Q.** What about the BUN [1, 9] of the same compound?
**A.** Its BUN is 45.0 ± 6.28 mg/dL.

**Q.** And the sCr [1, 9]?
**A.** Its sCr is 0.65 ± 0.09 mg/dL.

**Q.** And the BUN [1, 10]?
**A.** The BUN was 32.1 ± 4.63 mg/dL.

**Q.** What about the sCr [1, 10] of the same compound?
**A.** Its sCr is 0.53 ± 0.03 mg/dL.

**Q.** And the BUN [1, 11]?
**A.** Its BUN is 32.1 ± 4.63 mg/dL.

**Q.** And the sCr [1, 11]?
**A.** Its sCr is 0.53 ± 0.03 mg/dL.

**Q.** And the BUN [2, 12]?
**A.** The BUN was 108.8 ± 26.6 mg/dL.

**Q.** And the Scr [2, 12]?
**A.** The Scr was 0.9 ± 0.2 mg/dL.

**Q.** And the Ualb ([2]; 0.01 mg/kg, acute renal failure model)?
**A.** Its Ualb is 1.8 ± 0.3 mg/h/kg.

**Q.** What about the BUN [2, 13] of the same compound?
**A.** The BUN was 125.8 ± 28.7 mg/dL.

**Q.** And the Scr [2, 13]?
**A.** The Scr was 1.0 ± 0.3 mg/dL.

**Q.** What about the UF [2, 14] of the same compound?
**A.** Its UF is 0.0825 ± 0.0088 mL/min/kg.

**Q.** And the Ualb [2, 14]?
**A.** Its Ualb is 1.1 ± 0.3 mg/h/kg.

**Q.** What about the BUN [2, 15] of the same compound?
**A.** The BUN was 66.0 ± 11.3 mg/dL.

**Q.** What about the Scr [2, 15] of the same compound?
**A.** The Scr was 0.5 ± 0.1 mg/dL.

**Q.** What about the UF [2, 16] of the same compound?
**A.** Its UF is 0.0623 ± 0.0134 mL/min/kg.

**Q.** And the Ualb [2, 16]?
**A.** The Ualb was 0.7 ± 0.2 mg/h/kg.

**Q.** What about the BUN [2, 17] of the same compound?
**A.** Its BUN is 44.1 ± 2.9 mg/dL.

**Q.** And the Scr [2, 17]?
**A.** The Scr was 0.4 ± 0.0 mg/dL.

**Q.** And the Ualb ([2]; 10 mg/kg, acute renal failure model)?
**A.** Its Ualb is 0.5 ± 0.1 mg/h/kg.

**Q.** And the Cer [2, 18]?
**A.** The Cer was 1.6 ± 0.3 mL/min/kg.

**Q.** And the Cer [2, 19]?
**A.** The Cer was 1.7 ± 0.4 mL/min/kg.

**Q.** What about the Cer [2, 20] of the same compound?
**A.** The Cer was 2.3 ± 0.4 mL/min/kg.

**Q.** And the Cer [2, 21]?
**A.** Its Cer is 3.1 ± 0.2 mL/min/kg.

**Q.** What about the FENa [2, 18] of the same compound?
**A.** Its FENa is 1.8±0.8%.

**Q.** What about the FENa [2, 19] of the same compound?
**A.** Its FENa is 2.3±1.0%.

**Q.** What about the FENa [2, 20] of the same compound?
**A.** Its FENa is 1.0±0.2%.

**Q.** What about the FENa [2, 21] of the same compound?
**A.** The FENa was 0.7±0.1%.

**Q.** And the KW [2, 18]?
**A.** Its KW is 14.5 ± 0.6 mg/g.

**Q.** What about the KW [2, 19] of the same compound?
**A.** The KW was 13.6 ± 1.0 mg/g.

**Q.** And the KW [2, 20]?
**A.** The KW was 11.2 ± 0.8 mg/g.

**Q.** And the KW [2, 21]?
**A.** Its KW is 11.1 ± 0.4 mg/g.

**Q.** And the Ualb ([2]; urinary albumin, 0.01 mg/kg continuous femoral vein 30 min from 15 min after start of 45 min ischemia, mean±SE, 8 mice)?
**A.** The Ualb was 1.8 ± 0.3 mg/h/kg.

**Q.** And the Ualb ([2]; urinary albumin, 0.1 mg/kg continuous femoral vein 30 min from 15 min after start of 45 min ischemia, mean±SE, 8 mice)?
**A.** The Ualb was 1.1 ± 0.3 mg/h/kg.

**Q.** What about the Ualb ([2]; urinary albumin, 1 mg/kg continuous femoral vein 30 min from 15 min after start of 45 min ischemia, mean±SE, 8 mice) of the same compound?
**A.** Its Ualb is 0.7 ± 0.2 mg/h/kg.

**Q.** What about the Ualb ([2]; urinary albumin, 10 mg/kg continuous femoral vein 30 min from 15 min after start of 45 min ischemia, mean±SE, 8 mice) of the same compound?
**A.** The Ualb was 0.5 ± 0.1 mg/h/kg.
